Target: T1, JAK1 (Homo sapiens, UniProt P23458)
T1 construct: purchased Thermo Fisher Scientific
Assay: Z'-LYTE JAK1 kinase screen (Thermo Fisher Scientific)
Type: biochemical
Conditions: 1% DMSO, ATP at Km apparent; for % Inhibition 1000 nm: test compound 1000 nm (so in the source)
Description: The example compounds were screened for Jak1 activity at Thermo Fisher Scientific, using their Z′-Lyte™ protocol, as described below. Selectivity screening against other kinases can be performed following similar procedures. Z′-LYTE Assay Conditions: The Test Compounds are screened in 1% DMSO (final) in the well. Three screening concentrations (10, 100, and 1000 nM) of test compounds were used. Peptide/Kinase Mixtures: All Peptide/Kinase Mixtures are diluted to a 2× working concentration in the appropriate Kinase Buffer (For JAK1, the 2×JAK1/Tyr 06 mixture is prepared in 50 mM HEPES pH 6.5, 0.01% BRIJ-35, 10 mM MgCl2, 1 mM EGTA, 0.02% NaN3. The final 10 μL Kinase Reaction consists of 21.2-91.5 ng JAK1 and 2 μM Tyr 06 in 50 mM HEPES pH 7.0, 0.01% BRIJ-35, 10 mM MgCl2, 1 mM EGTA, 0.01% NaN3. After the 1 hour Kinase Reaction incubation, 5 μL of a 1:128 dilution of Development Reagent A is added). ATP Solution: All ATP Solutions are diluted to a 4× working concentration in Kinase Buffer (50 mM HEPES pH 7.5, 0.01% BRIJ-35, 10 mM MgCl2, 1 mM EGTA). ATP: Km apparent is previously determined using a Z′-LYTE assay. 10× Novel PKC Lipid Mix: 2 mg/ml Phosphatidyl Serine, 0.2 mg/ml DAG in 20 mM HEPES, pH 7.4, 0.3% CHAPS. For 5 mL 10× Novel PKC Lipid Mix: • 1. Add 10 mgs Phosphatidyl Serine (Avanti Polar Lipids Part #8400032C or 840039C) and 1 mg DAG (Avanti Polar Lipids Part #800811C) to a glass tube. • 2. Remove the chloroform from lipid mixture by evaporating to a clear, thin film under a stream of nitrogen. Continuous rotation of the tube, at an angle to ensure maximum surface area of the lipid solution, will promote the thinnest film. • 3. Add 5 mLs resuspension buffer, 20 mM HEPES, 0.3% CHAPS, pH 7.4, to the dried lipid mix • 4. Heat gently to 50-60° C. for 1-2 minutes and vortex in short intervals until the lipids are dissolved to a clear or slightly hazy solution. The lipids are typically in solution after 2-3 heat/vortex cycles. • 5. Cool to room temperature, aliquot into single use volumes and store at −20° C. Assay Protocol Bar-coded Corning, low volume NBS, black 384-well plate (Corning Cat. #4514) • 1. 100 nL—100× Test Compound in 100% DMSO • 2. 2.4 μL—Kinase buffer • 3. 5 μL—2× Peptide/Kinase Mixture • 4. 2.5 μL—4×ATP Solution • 5. 30-second plate shake • 6. 60-minute Kinase Reaction incubation at room temperature • 7. 5 μL—Development Reagent Solution • 8. 30-second plate shake • 9. 60-minute Development Reaction incubation at room temperature • 10. Read on fluorescence plate reader and analyze the data.

T1 sequence (P23458 whole entry): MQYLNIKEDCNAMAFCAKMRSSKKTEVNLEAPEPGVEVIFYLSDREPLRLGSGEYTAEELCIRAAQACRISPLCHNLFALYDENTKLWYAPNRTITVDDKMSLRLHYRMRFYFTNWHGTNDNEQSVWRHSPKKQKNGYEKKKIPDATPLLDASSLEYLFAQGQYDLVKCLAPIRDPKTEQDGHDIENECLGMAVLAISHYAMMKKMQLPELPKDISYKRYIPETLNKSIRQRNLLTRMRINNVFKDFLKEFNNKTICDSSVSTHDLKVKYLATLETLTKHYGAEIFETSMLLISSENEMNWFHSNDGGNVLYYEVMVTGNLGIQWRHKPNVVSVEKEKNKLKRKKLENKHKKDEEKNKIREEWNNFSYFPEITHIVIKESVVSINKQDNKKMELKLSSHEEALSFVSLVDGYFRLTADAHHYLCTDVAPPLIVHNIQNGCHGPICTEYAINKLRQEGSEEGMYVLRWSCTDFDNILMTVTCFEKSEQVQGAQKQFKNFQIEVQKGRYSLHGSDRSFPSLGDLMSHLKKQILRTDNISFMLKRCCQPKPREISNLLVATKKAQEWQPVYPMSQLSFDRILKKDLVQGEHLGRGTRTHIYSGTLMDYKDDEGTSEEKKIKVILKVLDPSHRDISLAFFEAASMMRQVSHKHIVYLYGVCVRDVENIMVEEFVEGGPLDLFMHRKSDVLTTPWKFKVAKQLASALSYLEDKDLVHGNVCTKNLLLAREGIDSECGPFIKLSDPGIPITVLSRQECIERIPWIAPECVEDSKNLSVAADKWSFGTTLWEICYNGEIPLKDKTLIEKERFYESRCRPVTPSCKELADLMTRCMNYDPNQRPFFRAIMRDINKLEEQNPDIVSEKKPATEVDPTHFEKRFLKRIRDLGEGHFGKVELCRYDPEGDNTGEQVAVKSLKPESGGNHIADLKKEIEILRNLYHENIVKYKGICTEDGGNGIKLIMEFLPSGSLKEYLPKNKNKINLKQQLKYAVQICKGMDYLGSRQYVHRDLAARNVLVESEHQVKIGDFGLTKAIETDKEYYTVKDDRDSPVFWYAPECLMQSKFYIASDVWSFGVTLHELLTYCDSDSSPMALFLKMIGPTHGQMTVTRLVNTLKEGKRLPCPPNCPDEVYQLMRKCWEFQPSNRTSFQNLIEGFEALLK

| Compound | inhibition at 0.01 µM (test compound 10 nM) [%] | inhibition at 0.1 µM (test compound 100 nM) [%] | % Inhibition 1000 nm [%] | % Inhibition 10 nM (test compound 10 nM, 0.01 µM) [%] | % Inhibition 100 nM (test compound 100 nM, 0.1 µM) [%] |
| --- | --- | --- | --- | --- | --- |
| CN(c1ncnc2[nH]ccc12)C1CC2(CC(NS(=O)(=O)c3ccccc3)C2)C1 (stereo not drawn) [Compound 11, N-[2-[methyl(7H-pyrrolo[2,3-d]pyrimidin-4-yl)amino]spiro[3.3]heptan-6-yl]benzenesulfonamide] | 11 | 81 | 95 | – | – |
| CN(c1ncnc2[nH]ccc12)C1CC2(C1)CC(S(=O)(=O)NCC(F)(F)F)C2 (stereo not drawn) [Compound 6, 6-[methyl(7H-pyrrolo[2,3-d]pyrimidin-4-yl)amino]-N-(2,2,2-trifluoroethyl)spiro[3.3]heptane-2-sulfonamide] | 63 | 93 | 96 | – | – |
| CN(c1ncnc2[nH]ccc12)C1CC2(C1)CC(S(=O)(=O)N1CCCC1)C2 (stereo not drawn) [Compound 30, N-methyl-N-(2-pyrrolidin-1-ylsulfonylspiro[3.3]heptan-6-yl)-7H-pyrrolo[2,3-d]pyrimidin-4-amine] | 43 | 89 | 99 | – | – |
| CNS(=O)(=O)C1CC2(CC(N(C)c3ncnc4[nH]ncc34)C2)C1 (stereo not drawn) [Compound 25, N-methyl-6-[methyl(1H-pyrazolo[3,4-d]pyrimidin-4-yl)amino]spiro[3.3]heptane-2-sulfonamide] | 2 | 4 | 19 | – | – |

The next lines start with the values.

| inhibition at 0.01 µM (test compound 10 nM) [%] | inhibition at 0.1 µM (test compound 100 nM) [%] | % Inhibition 1000 nm [%] | % Inhibition 10 nM (test compound 10 nM, 0.01 µM) [%] | % Inhibition 100 nM (test compound 100 nM, 0.1 µM) [%] | Compound |
| --- | --- | --- | --- | --- | --- |
| – | – | 98 | 77 | 96 | CNS(=O)(=O)C1CC2(CC(N(C)c3ncnc4[nH]ccc34)C2)C1 (single isomer, unassigned; enantiomer a) [Compound 26, (Enantiomer A)-N-methyl-6-[methyl(7H-pyrrolo[2,3-d]pyrimidin-4-yl)amino]spiro[3.3]heptane-2-sulfonamide] |
| 64 | 93 | 99 | – | – | CN(c1ncnc2[nH]ccc12)C1CC2(C1)CC(S(=O)(=O)NC1CCC1)C2 (stereo not drawn) [Compound 9, N-cyclobutyl-6-[methyl(7H-pyrrolo[2,3-d]pyrimidin-4-yl)amino]spiro[3.3]heptane-2-sulfonamide] |
| 61 | 94 | 99 | – | – | CN(c1ncnc2[nH]ccc12)C1CC2(C1)CC(S(=O)(=O)NC1CC1)C2 (stereo not drawn) [Compound 5, N-cyclopropyl-6-[methyl(7H-pyrrolo[2,3-d]pyrimidin-4-yl)amino]spiro[3.3]heptane-2-sulfonamide] |

— patent US10744136B2, “Sulfonamide derivatives as JAK inhibitors” (Avista Pharma Solutions, Inc., priority 2018, dated 2020)
